Data as given in patent publication US7642245B2, “Antibacterial compounds having a (pyrrole carboxamide)-(benzamide)-(imidazole carboxamide) motif” (Oscient Pharmaceuticals Corporation, priority 2002, dated 2010).
Blank lines part the entries; values can stand above or below the compound they belong to.

Experiments:
[1] = tested on: M. catarrhalis (ATCC 25238); test: MIC, NCCLS broth microdilution; assay type: cell-based, Moraxella (now Branhamella) catarrhalis; details: H = M. catarrhalis (ATCC 25238)
Procedure, shortened: (§1)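 Compounds were serially diluted in broth and tested against each strain according to NCCLS guidelines, with MIC taken as the endpoint. C. albicans was assayed per the Manual of Clinical Microbiology.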

S. pneumoniae ATCC 49619 = test: MIC, NCCLS broth microdilution; assay type: cell-based, Streptococcus pneumoniae; details: E = S. pneumoniae ATCC 49619
Procedure, shortened: as §1

C. albicans ATCC 38247 = test: MIC, antifungal assay; assay type: cell-based, Candida albicans; details: F = C. albicans ATCC 38247
Procedure, shortened: as §1

B. cereus ATCC 11778 = test: MIC, NCCLS broth microdilution; assay type: cell-based, Bacillus cereus; details: D = B. cereus ATCC 11778
Procedure, shortened: as §1

E. faecalis ATCC 29212 = test: MIC, NCCLS broth microdilution; assay type: cell-based, Enterococcus faecalis; details: C = E. faecalis ATCC 29212
Procedure, shortened: as §1

S. aureus ATCC 13709 = test: MIC, NCCLS broth microdilution; assay type: cell-based, Staphylococcus aureus; details: A = S. aureus ATCC 13709 (MSSA)
Procedure, shortened: as §1

S. aureus ATCC 27660 = test: MIC, NCCLS broth microdilution; assay type: cell-based, Staphylococcus aureus; details: B = S. aureus ATCC 27660 (MRSA)
Procedure, shortened: as §1

E. coli ATCC 25922 = test: MIC, NCCLS broth microdilution; assay type: cell-based, Escherichia coli; details: G = E. coli ATCC 25922
Procedure, shortened: as §1

[2] = tested on: Streptococcus pneumoniae ATCC 49619; test: Disc diffusion of non-formulated compounds; assay type: cell-based; details: ATCC49619, non-formulated compound, 30 μg/disc, S. pneumoniae ATCC 49619 on TSA + 5% Sheep Blood, 6.3 mm disc = no inhibition zone, read-out: Zone Diameter (nearest whole mm)
Method: (§2) The diffusion assays on a compound of this invention were performed according to NCCLS Guidelines (Performance Standards for Antimicrobial Susceptibility Testing, M100-S12 vol. 22 and Performance Standards for Antimicrobial Disk Susceptibility Tests, M2-A7 vol. 20) with the following modifications: Generally, diffusion of the drug from the inoculation site (the disk or the well, as the case may be) through the agar creates a concentration gradient of the test compound. Bacterial growth is inhibited by the drug, creating a zone of inhibition. […] The activity of the compound was determined by measurement of the zone of inhibition surrounding the disk. The results are provided in Tables C, D, and E. The diffusion results of Table C measure the diffusion of free compound. The diffusion results of Tables D and E measure the diffusion of compound formulated into a cream.

[3] = tested on: Enterococcus faecalis ATCC 29212; test: Disc diffusion of non-formulated compounds; assay type: cell-based; details: ATCC29212, non-formulated compound, 30 μg/disc, E. faecalis ATCC 29212 on TSA + 5% Sheep Blood, 6.3 mm disc = no inhibition zone, read-out: Zone Diameter (nearest whole mm)
Method: as §2

[4] = tested on: Staphylococcus aureus ATCC 13709; test: Disc diffusion of non-formulated compounds; assay type: cell-based; details: ATCC13709, non-formulated compound, 30 μg/disc, S. aureus ATCC 13709 on TSA, 6.3 mm disc = no inhibition zone, read-out: Zone Diameter (nearest whole mm)
Method: as §2

Minimum Inhibitory Concentration (MIC) [1]: >32 µg/mL
Minimum Inhibitory Concentration (MIC) (S. pneumoniae ATCC 49619): +++ (MIC ≦ 4 μg/mL)
Minimum Inhibitory Concentration (MIC) (C. albicans ATCC 38247): >32 µg/mL
Minimum Inhibitory Concentration (MIC) (B. cereus ATCC 11778): +++ (MIC ≦ 4 μg/mL)
Minimum Inhibitory Concentration (MIC) (E. faecalis ATCC 29212): +++ (MIC ≦ 4 μg/mL)
Minimum Inhibitory Concentration (MIC) (S. aureus ATCC 13709): +++ (MIC ≦ 4 μg/mL)
Minimum Inhibitory Concentration (MIC) (S. aureus ATCC 27660): +++ (MIC ≦ 4 μg/mL)
Minimum Inhibitory Concentration (MIC) (E. coli ATCC 25922): >32 µg/mL
Structure (SMILES): Cn1cc(NC(=O)c2cc3ccccc3cn2)cc1C(=O)Nc1ccc(C(=O)Nc2cn(C)c(C(=O)NCCN3CCC(OC(=O)CNC(=O)C4OC(O)C(O)C(O)C4O)CC3)n2)cc1 (stereo not drawn) [Compound A-74]

Minimum Inhibitory Concentration (MIC) [1]: >32 µg/mL
Minimum Inhibitory Concentration (MIC) (S. pneumoniae ATCC 49619): +++ (MIC ≦ 4 μg/mL)
Minimum Inhibitory Concentration (MIC) (C. albicans ATCC 38247): >32 µg/mL
Minimum Inhibitory Concentration (MIC) (B. cereus ATCC 11778): +++ (MIC ≦ 4 μg/mL)
Minimum Inhibitory Concentration (MIC) (E. faecalis ATCC 29212): +++ (MIC ≦ 4 μg/mL)
Minimum Inhibitory Concentration (MIC) (S. aureus ATCC 13709): +++ (MIC ≦ 4 μg/mL)
Minimum Inhibitory Concentration (MIC) (S. aureus ATCC 27660): +++ (MIC ≦ 4 μg/mL)
Minimum Inhibitory Concentration (MIC) (E. coli ATCC 25922): >32 µg/mL
Structure (SMILES): Cn1cc(NC(=O)c2cc3ccccc3cn2)cc1C(=O)Nc1ccc(C(=O)Nc2cn(C)c(C(=O)NCCN3CCN(C(=O)C4OC(O)C(O)C(O)C4O)CC3)n2)cc1 (stereo not drawn) [Compound A-75]

Minimum Inhibitory Concentration (MIC) [1]: +++ (MIC ≦ 4 μg/mL)
Minimum Inhibitory Concentration (MIC) (S. pneumoniae ATCC 49619): +++ (MIC ≦ 4 μg/mL)
Minimum Inhibitory Concentration (MIC) (C. albicans ATCC 38247): >32 µg/mL
Minimum Inhibitory Concentration (MIC) (B. cereus ATCC 11778): +++ (MIC ≦ 4 μg/mL)
Minimum Inhibitory Concentration (MIC) (E. faecalis ATCC 29212): +++ (MIC ≦ 4 μg/mL)
Minimum Inhibitory Concentration (MIC) (S. aureus ATCC 13709): +++ (MIC ≦ 4 μg/mL)
Minimum Inhibitory Concentration (MIC) (S. aureus ATCC 27660): +++ (MIC ≦ 4 μg/mL)
Minimum Inhibitory Concentration (MIC) (E. coli ATCC 25922): >32 µg/mL
Structure (SMILES): Cn1cc(NC(=O)c2cc3ccccc3cn2)cc1C(=O)Nc1ccc(C(=O)Nc2cn(C)c(C(=O)NCCN3CCN(CCOC(=O)CNC(=O)C4OC(O)C(O)C(O)C4O)CC3)n2)cc1 (stereo not drawn) [Compound A-76]

Continued, compound first:

Structure (SMILES): Cn1cc(NC(=O)c2cc3ccccc3cn2)cc1C(=O)Nc1ccc(C(=O)Nc2cn(C)c(C(=O)NCCN3CCC(O)C3)n2)cc1 (stereo not drawn) [Compound A-70]
Minimum Inhibitory Concentration (MIC) [1]: +++ (MIC ≦ 4 μg/mL)
Minimum Inhibitory Concentration (MIC) (S. pneumoniae ATCC 49619): +++ (MIC ≦ 4 μg/mL)
Minimum Inhibitory Concentration (MIC) (C. albicans ATCC 38247): >32 µg/mL
Minimum Inhibitory Concentration (MIC) (B. cereus ATCC 11778): +++ (MIC ≦ 4 μg/mL)
Minimum Inhibitory Concentration (MIC) (E. faecalis ATCC 29212): +++ (MIC ≦ 4 μg/mL)
Minimum Inhibitory Concentration (MIC) (S. aureus ATCC 13709): +++ (MIC ≦ 4 μg/mL)
Minimum Inhibitory Concentration (MIC) (S. aureus ATCC 27660): +++ (MIC ≦ 4 μg/mL)
Minimum Inhibitory Concentration (MIC) (E. coli ATCC 25922): +++ (MIC ≦ 4 μg/mL)

Structure (SMILES): Cn1cc(NC(=O)c2cc3ccccc3cn2)cc1C(=O)Nc1ccc(C(=O)Nc2cn(C)c(C(=O)NCCN3CCCC(O)C3)n2)cc1 (stereo not drawn) [Compound A-72]
Minimum Inhibitory Concentration (MIC) [1]: +++ (MIC ≦ 4 μg/mL)
Minimum Inhibitory Concentration (MIC) (S. pneumoniae ATCC 49619): +++ (MIC ≦ 4 μg/mL)
Minimum Inhibitory Concentration (MIC) (C. albicans ATCC 38247): >32 µg/mL
Minimum Inhibitory Concentration (MIC) (B. cereus ATCC 11778): +++ (MIC ≦ 4 μg/mL)
Minimum Inhibitory Concentration (MIC) (E. faecalis ATCC 29212): +++ (MIC ≦ 4 μg/mL)
Minimum Inhibitory Concentration (MIC) (S. aureus ATCC 13709): +++ (MIC ≦ 4 μg/mL)
Minimum Inhibitory Concentration (MIC) (S. aureus ATCC 27660): +++ (MIC ≦ 4 μg/mL)
Minimum Inhibitory Concentration (MIC) (E. coli ATCC 25922): >32 µg/mL

Structure (SMILES): Cn1cc(NC(=O)c2cc3ccccc3cn2)cc1C(=O)Nc1ccc(C(=O)Nc2cn(C)c(C(=O)NCCN3CCN(CCOC(=O)CNS(=O)(=O)O)CC3)n2)cc1 [Compound A-73]
Minimum Inhibitory Concentration (MIC) [1]: >32 µg/mL
Minimum Inhibitory Concentration (MIC) (S. pneumoniae ATCC 49619): +++ (MIC ≦ 4 μg/mL)
Minimum Inhibitory Concentration (MIC) (C. albicans ATCC 38247): >32 µg/mL
Minimum Inhibitory Concentration (MIC) (B. cereus ATCC 11778): +++ (MIC ≦ 4 μg/mL)
Minimum Inhibitory Concentration (MIC) (E. faecalis ATCC 29212): +++ (MIC ≦ 4 μg/mL)
Minimum Inhibitory Concentration (MIC) (S. aureus ATCC 13709): +++ (MIC ≦ 4 μg/mL)
Minimum Inhibitory Concentration (MIC) (S. aureus ATCC 27660): +++ (MIC ≦ 4 μg/mL)
Minimum Inhibitory Concentration (MIC) (E. coli ATCC 25922): >32 µg/mL

Structure (SMILES): CC(S)CN1CCN(CCNC(=O)c2nc(NC(=O)c3ccc(NC(=O)c4cc(NC(=O)c5cc6ccccc6cn5)cn4C)cc3)cn2C)CC1 (stereo not drawn) [Compound A-77]
Minimum Inhibitory Concentration (MIC) [1]: + (12 ≦ MIC ≦ 32 μg/mL)
Minimum Inhibitory Concentration (MIC) (S. pneumoniae ATCC 49619): +++ (MIC ≦ 4 μg/mL)
Minimum Inhibitory Concentration (MIC) (C. albicans ATCC 38247): >32 µg/mL
Minimum Inhibitory Concentration (MIC) (B. cereus ATCC 11778): +++ (MIC ≦ 4 μg/mL)
Minimum Inhibitory Concentration (MIC) (E. faecalis ATCC 29212): +++ (MIC ≦ 4 μg/mL)
Minimum Inhibitory Concentration (MIC) (S. aureus ATCC 13709): +++ (MIC ≦ 4 μg/mL)
Minimum Inhibitory Concentration (MIC) (S. aureus ATCC 27660): ++ (4 < MIC < 12 μg/mL)
Minimum Inhibitory Concentration (MIC) (E. coli ATCC 25922): >32 µg/mL

Structure (SMILES): CCC(O)CN1CCN(CCNC(=O)c2nc(NC(=O)c3ccc(NC(=O)c4cc(NC(=O)c5cc6ccccc6cn5)cn4C)cc3)cn2C)CC1 (stereo not drawn) [Compound A-78]
Minimum Inhibitory Concentration (MIC) [1]: +++ (MIC ≦ 4 μg/mL)
Minimum Inhibitory Concentration (MIC) (S. pneumoniae ATCC 49619): +++ (MIC ≦ 4 μg/mL)
Minimum Inhibitory Concentration (MIC) (C. albicans ATCC 38247): >32 µg/mL
Minimum Inhibitory Concentration (MIC) (B. cereus ATCC 11778): +++ (MIC ≦ 4 μg/mL)
Minimum Inhibitory Concentration (MIC) (E. faecalis ATCC 29212): +++ (MIC ≦ 4 μg/mL)
Minimum Inhibitory Concentration (MIC) (S. aureus ATCC 13709): +++ (MIC ≦ 4 μg/mL)
Minimum Inhibitory Concentration (MIC) (S. aureus ATCC 27660): +++ (MIC ≦ 4 μg/mL)
Minimum Inhibitory Concentration (MIC) (E. coli ATCC 25922): + (12 ≦ MIC ≦ 32 μg/mL)

Structure (SMILES): Cn1cc(NC(=O)c2cc3ccccc3cn2)cc1C(=O)Nc1ccc(C(=O)Nc2cn(C)c(C(=O)NCCN3CCCC3CO)n2)cc1 (stereo not drawn) [Compound A-81]
Minimum Inhibitory Concentration (MIC) [1]: +++ (MIC ≦ 4 μg/mL)
Minimum Inhibitory Concentration (MIC) (S. pneumoniae ATCC 49619): +++ (MIC ≦ 4 μg/mL)
Minimum Inhibitory Concentration (MIC) (C. albicans ATCC 38247): >32 µg/mL
Minimum Inhibitory Concentration (MIC) (B. cereus ATCC 11778): +++ (MIC ≦ 4 μg/mL)
Minimum Inhibitory Concentration (MIC) (E. faecalis ATCC 29212): +++ (MIC ≦ 4 μg/mL)
Minimum Inhibitory Concentration (MIC) (S. aureus ATCC 13709): +++ (MIC ≦ 4 μg/mL)
Minimum Inhibitory Concentration (MIC) (S. aureus ATCC 27660): +++ (MIC ≦ 4 μg/mL)
Minimum Inhibitory Concentration (MIC) (E. coli ATCC 25922): >32 µg/mL

Structure (SMILES): CN[C@H](CC(C)C)C(=O)N[C@H]1C(=O)N[C@@H](CC(N)=O)C(=O)N[C@H]2C(=O)N[C@H]3C(=O)N[C@H](C(=O)N[C@H](C(=O)O)c4cc(O)cc(O)c4-c4cc3ccc4O)[C@H](O)c3ccc(c(Cl)c3)Oc3cc2cc(c3O[C@@H]2O[C@H](CO)[C@@H](O)[C@H](O)[C@H]2O[C@H]2C[C@](C)(N)[C@H](O)[C@H](C)O2)Oc2ccc(cc2Cl)[C@H]1O [Vancomycin]
zone of inhibition at 30 µg/disc [2]: 19 mm
zone of inhibition at 30 µg/disc [3]: 15 mm
zone of inhibition at 30 µg/disc [4]: 15 mm
